In ChEMBL document CHEMBL1201862, “PubChem BioAssay data set” (2004):
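Interpolation was linear, between the two tested concentrations surrounding the appropriate level; five concentrations were tested over 48 hours in 96-well plates. At the GI50, growth is halved.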 Calls of active or inactive are those of the source. No stated cut-off is given here; in the data, active = GI50 up to about 1.1 µM and inactive = higher.

Experiments:
Experiment in all cases: DTP human tumour cell line panel, 48 h
A549 = test system: A549
ACHN = test system: ACHN
BT-549 = test system: BT-549
DU-145 = test system: DU-145
EKVX = test system: EKVX
HCC 2998 = test system: HCC 2998
HL-60 = test system: HL-60
MDA-MB-231 = test system: MDA-MB-231
MDA-MB-435 = test system: MDA-MB-435
NCI-H23 = test system: NCI-H23
PC-3 = test system: PC-3
SNB-19 = test system: SNB-19
SR = test system: SR
SW-620 = test system: SW-620
TK-10 = test system: TK-10
UO-31 = test system: UO-31
DLD-1 = test system: DLD-1
DMS-114 = test system: DMS-114
DMS-273 = test system: DMS-273
XF498 = test system: XF498

| Compound | GI50 (A549) | GI50 (ACHN) | GI50 (BT-549) | GI50 (DU-145) | GI50 (EKVX) | GI50 (HCC 2998) | GI50 (HL-60) | GI50 (MDA-MB-231) | GI50 (MDA-MB-435) | GI50 (NCI-H23) | GI50 (PC-3) | GI50 (SNB-19) | GI50 (SR) | GI50 (SW-620) | GI50 (TK-10) | GI50 (UO-31) | GI50 (DLD-1) | GI50 (DMS-114) | GI50 (DMS-273) | GI50 (XF498) |
| --- | --- | --- | --- | --- | --- | --- | --- | --- | --- | --- | --- | --- | --- | --- | --- | --- | --- | --- | --- | --- |
| OC(COc1ccccc1)CN1CCCCC1 (stereo not drawn) | > 100 µM (inactive) | > 100 µM (inactive) | > 100 µM (inactive) | > 100 µM (inactive) | 63.4 µM (inactive) | > 100 µM (inactive) | > 100 µM (inactive) | > 100 µM (inactive) | > 100 µM (inactive) | > 100 µM (inactive) | > 100 µM (inactive) | > 100 µM (inactive) | > 100 µM (inactive) | > 100 µM (inactive) | > 100 µM (inactive) | > 100 µM (inactive) |  |  |  |  |
| CCc1ccccc1NC(=O)C1=C(C)NC(C)=C(C(=O)Nc2ccccc2CC)C1c1cccc([N+](=O)[O-])c1 | 21.5 µM (inactive) | 29.5 µM (inactive) |  |  | 34 µM (inactive) | 11.7 µM (inactive) | 23.2 µM (inactive) |  |  | 36.6 µM (inactive) |  | 59.4 µM (inactive) |  | 47.5 µM (inactive) | 41.6 µM (inactive) | 11.5 µM (inactive) | 19.9 µM (inactive) | 30.1 µM (inactive) |  |  |
| Cc1cc(Br)ccc1/N=N/C1C(=O)ON=C1c1ccccc1 (stereo not drawn) | 25.7 µM (inactive) | 63.4 µM (inactive) |  |  | 67 µM (inactive) | 26.5 µM (inactive) | 32.1 µM (inactive) |  |  | > 100 µM (inactive) |  | > 100 µM (inactive) | 48 µM (inactive) | > 100 µM (inactive) | 69.3 µM (inactive) | 46.9 µM (inactive) | 90.2 µM (inactive) | 65.6 µM (inactive) | > 100 µM (inactive) |  |
| Cc1ccc2nc(/C=N/c3ccc(Cl)cc3)cc(C)c2c1 | 1.24 µM (inactive) | 0.128 µM (active) | 13.9 µM (inactive) | 0.659 µM (active) | 14.4 µM (inactive) | 0.574 µM (active) | 1.14 µM (inactive) | 4.94 µM (inactive) | 1.04 µM (active) | 9.91 µM (inactive) | 1.9 µM (inactive) | 27.6 µM (inactive) | 1.88 µM (inactive) | 2.07 µM (inactive) | 2.9 µM (inactive) | 0.381 µM (active) |  |  |  |  |
| Cn1c(O)c(C(=O)Nc2cccs2)c(=O)[nH]c1=S | 19.4 µM (inactive) | 12.9 µM (inactive) |  |  |  |  | 78.9 µM (inactive) |  |  | 14.5 µM (inactive) |  | 28.9 µM (inactive) |  | 26.2 µM (inactive) | 31 µM (inactive) | 12.2 µM (inactive) | 21.2 µM (inactive) | 14.5 µM (inactive) |  |  |
| COc1ccc(NC(=O)CCc2cc(-c3ccc(O)c(OC)c3)nc(NC#N)n2)cc1 | > 100 µM (inactive) | > 100 µM (inactive) |  |  | > 100 µM (inactive) | > 100 µM (inactive) | > 100 µM (inactive) |  |  | > 100 µM (inactive) |  | > 100 µM (inactive) | > 100 µM (inactive) | > 100 µM (inactive) |  | > 100 µM (inactive) | > 100 µM (inactive) | > 100 µM (inactive) |  |  |
| COc1cc([N+](=O)[O-])ccc1NC(=O)c1cccc([N+](=O)[O-])c1O | 21.8 µM (inactive) | 12.6 µM (inactive) |  |  | 29.1 µM (inactive) | 19 µM (inactive) | 19.9 µM (inactive) |  |  | 20.4 µM (inactive) |  | 41.5 µM (inactive) | 17.8 µM (inactive) | 30.8 µM (inactive) |  | 16.2 µM (inactive) | 16.1 µM (inactive) | 22.7 µM (inactive) |  |  |
| OCCNCO | > 100 µM (inactive) | > 100 µM (inactive) |  |  | > 100 µM (inactive) |  | 46.8 µM (inactive) |  |  | > 100 µM (inactive) |  | > 100 µM (inactive) | > 100 µM (inactive) | > 100 µM (inactive) | > 100 µM (inactive) | > 100 µM (inactive) |  |  | > 100 µM (inactive) | > 100 µM (inactive) |
| CC(=O)n1c(=O)c2cc3c(=O)n(-c4cccc(C#N)c4)c(=O)c3cc2c1=O | > 100 µM (inactive) | > 100 µM (inactive) |  |  | > 100 µM (inactive) | > 100 µM (inactive) | > 100 µM (inactive) |  |  | > 100 µM (inactive) |  | 67 µM (inactive) |  | > 100 µM (inactive) | > 100 µM (inactive) | > 100 µM (inactive) | > 100 µM (inactive) | > 100 µM (inactive) | 88.1 µM (inactive) |  |
| COc1cc(-c2nn3c(=O)n(-c4ccc(Cl)cc4)c(=O)nc3s2)cc(OC)c1OC | 41 µM (inactive) | 16.3 µM (inactive) |  |  | > 86.5 µM (inactive) | > 100 µM (inactive) | > 50 µM (inactive) |  |  | 37.6 µM (inactive) |  | 19.1 µM (inactive) |  | > 100 µM (inactive) | 8.55 µM (inactive) | > 76.6 µM (inactive) | > 86.9 µM (inactive) |  | 23.2 µM (inactive) |  |
| O=C(O)CCSC(=O)Nc1ccc([N+](=O)[O-])cc1 | > 100 µM (inactive) | > 100 µM (inactive) |  |  | > 100 µM (inactive) | > 100 µM (inactive) | > 100 µM (inactive) |  |  | > 100 µM (inactive) |  | > 100 µM (inactive) | > 100 µM (inactive) | > 100 µM (inactive) | > 100 µM (inactive) | > 100 µM (inactive) | > 100 µM (inactive) | > 100 µM (inactive) | > 100 µM (inactive) |  |
| Cc1cc(C)n2c(-c3ccccc3)c(C)cc2n1 | 75.5 µM (inactive) | 95.7 µM (inactive) |  |  | 64 µM (inactive) | 34.8 µM (inactive) | 5.68 µM (inactive) |  |  | 41.1 µM (inactive) |  | 52.2 µM (inactive) |  | 34 µM (inactive) | > 100 µM (inactive) | 34.9 µM (inactive) | 42.3 µM (inactive) | 23.8 µM (inactive) | 27.5 µM (inactive) |  |
| CC(C)(/N=N/C(C)(C)C(=N)N)C(=N)N | > 100 µM (inactive) | > 100 µM (inactive) | > 100 µM (inactive) | > 100 µM (inactive) | > 100 µM (inactive) | > 100 µM (inactive) | > 100 µM (inactive) | > 100 µM (inactive) | > 100 µM (inactive) | > 100 µM (inactive) | > 100 µM (inactive) | > 100 µM (inactive) | > 100 µM (inactive) | > 100 µM (inactive) | > 100 µM (inactive) | > 100 µM (inactive) |  |  |  |  |
| CCOC(=O)/C=C(/C(=O)OCC)n1cc(C)c(=O)[nH]c1=O | 16.4 µM (inactive) | 2.72 µM (inactive) | 10.3 µM (inactive) | 16.1 µM (inactive) | 3.33 µM (inactive) | 5.71 µM (inactive) | 1.67 µM (inactive) | 4.51 µM (inactive) | 3.07 µM (inactive) | 5.56 µM (inactive) | 8.15 µM (inactive) | 17.3 µM (inactive) | 1.92 µM (inactive) | 2.01 µM (inactive) | 2.52 µM (inactive) | 11.2 µM (inactive) |  |  |  |  |
| CC1=NN(c2ccccc2)C(=O)C1C(=O)C(=O)Nc1ccc(C)cc1C (stereo not drawn) | > 100 µM (inactive) | > 100 µM (inactive) |  | > 100 µM (inactive) | > 100 µM (inactive) | > 100 µM (inactive) | > 100 µM (inactive) |  |  | > 100 µM (inactive) | > 100 µM (inactive) | > 100 µM (inactive) | > 100 µM (inactive) | > 100 µM (inactive) | > 100 µM (inactive) | > 100 µM (inactive) | > 100 µM (inactive) | > 100 µM (inactive) | > 100 µM (inactive) |  |
| Cc1cc(C)c2c(O)cc(-c3ccc4ccccc4c3)nc2n1 | 12.5 µM (inactive) | 46 µM (inactive) | 40.5 µM (inactive) | 21.7 µM (inactive) | 29.5 µM (inactive) | 16.3 µM (inactive) | 3.04 µM (inactive) | 23.1 µM (inactive) | 2.92 µM (inactive) | 30.8 µM (inactive) | 10.2 µM (inactive) | 30.9 µM (inactive) | 5.98 µM (inactive) | 15.2 µM (inactive) | 31 µM (inactive) | 22.9 µM (inactive) |  |  |  |  |
| CCCCCNC(=O)c1cc2cc(CCl)ccc2oc1=O | 4.65 µM (inactive) | 2.01 µM (inactive) | 6.49 µM (inactive) | 2.26 µM (inactive) | 4.41 µM (inactive) | 1.77 µM (inactive) | 1.9 µM (inactive) | 1.97 µM (inactive) | 9.27 µM (inactive) | 2.62 µM (inactive) | 1.33 µM (inactive) | 15.9 µM (inactive) | 5.38 µM (inactive) | > 49.7 µM (inactive) | 1.52 µM (inactive) | 1.63 µM (inactive) |  |  |  |  |
| COc1ccc2[nH]c(Cl)c(/C=C3/C(=O)N(c4ccccc4)c4ccccc43)c2c1 | 5.31 µM (inactive) | 7.57 µM (inactive) | 2.67 µM (inactive) | 18.3 µM (inactive) | 7.08 µM (inactive) | 4.24 µM (inactive) | 2.33 µM (inactive) | 6.35 µM (inactive) | 1.46 µM (inactive) | 4.06 µM (inactive) | 3.7 µM (inactive) | 9.46 µM (inactive) | 2.65 µM (inactive) | 3.78 µM (inactive) | 10.8 µM (inactive) | 7.59 µM (inactive) |  |  |  |  |
| C=C1CC[C@H]2C(C)=CC[C@H]3C(=C)C(=O)O[C@@H]3[C@@H]12 [EREMANTHIN] | > 100 µM (inactive) | > 100 µM (inactive) | > 100 µM (inactive) | > 100 µM (inactive) | > 100 µM (inactive) | > 100 µM (inactive) | > 100 µM (inactive) | > 100 µM (inactive) | > 100 µM (inactive) | > 100 µM (inactive) | > 100 µM (inactive) | > 100 µM (inactive) | > 100 µM (inactive) | > 100 µM (inactive) | > 100 µM (inactive) | > 100 µM (inactive) |  |  |  |  |
